Measurements taken from patent US20090221624A1, “4-AMINOQUINOLINE COMPOUNDS FOR TREATING VIRUS-RELATED CONDITIONS” (priority 2005, published 2009).

Tests used:
[1] = test system: WNV (WN-hRuPac cells); test: WNV antiviral activity, WN-hRuPac cells, Renilla luciferase; format: cell-based, West Nile virus; conditions: for EC50 / inhibition at 25 µM: West Nile virus; for EC50: Secondary Data, WNV, read-out: WNV EC50; for inhibition at 25 µM: primary screening, 25 μM final concentration, 24 hours, percent inhibition of viral replication, read-out: WNV Inh; for WNV TI: therapeutic index CC50/EC50, WNV
[2] = test system: YFV (YF-hRuPac cells); test: microbe, parasite or virus in culture; format: cell-based, yellow fever virus; conditions: for inhibition at 25 µM / EC50: Yellow fever virus; for inhibition at 25 µM: 24 h, read-out: YFV Inh; for EC50: read-out: YFV EC50
[3] = test system: HCV replicon (Clone A cells, Huh7, subgenomic hepatits C virus RNA); test: HCV Neo screening assay (HCV replicon, NPTII ELISA); format: cell-based, hepatitis C virus; conditions: for inhibition at 25 µM / EC50: Hepatitis C virus, Huh-7; for inhibition at 25 µM: primary screening, 25 μM final concentration, 24 hours, percent inhibition of viral replication, read-out: HCV Inh; for EC50: Secondary Data, HCV; for HCV TI: therapeutic index CC50/EC50, HCV
[4] = in vitro
[5] = test system: SINV (SR19-F-luc cells); test: SINV antiviral activity, SR19-F-luc cells, Firefly luciferase; format: cell-based; conditions: Sindbis virus; for inhibition at 25 µM: primary screening, 25 μM final concentration, 24 hours, percent inhibition of viral replication, read-out: SINV Inh; for EC50: secondary screening, SR19-F-luc cells
[6] = test system: RSV minigenome; test: RSV minigenome-dependent β-galactosidase expression assay (RSV β-Gal); format: cell-based, respiratory syncytial virus; conditions: for EC50 / inhibition at 25 µM: human respiratory syncytial virus; for EC50: Secondary Data, RSV, read-out: RSV EC50; for inhibition at 25 µM: primary screening, 25 μM final concentration, 24 hours, percent inhibition of viral replication, read-out: RSV Inh; for RSV TI: therapeutic index CC50/EC50, RSV
[7] = test system: DNG (D2-hRuPac cells); test: DNG antiviral activity, D2-hRuPac cells, Renilla luciferase; format: cell-based, Dengue fever virus; conditions: Dengue virus, secondary screening
[8] = test system: EBOV minigenome; test: microbe, parasite or virus in culture; format: cell-based, Ebola virus; conditions: Zaire ebolavirus; for inhibition at 25 µM: 24 h, read-out: EBOV Inh; for EC50: read-out: EBOV EC50

SMILES: CCOC(=O)c1cnc2ccc(F)cc2c1NCCCN(C)C [Compound 66]
- EC50 [1]: 22.9 µM
- inhibition at 25 µM [1]: 40.8%
- WNV TI [1]: 2.82
- YFV TI [2]: 0.86
- inhibition at 25 µM [2]: 11.4%
- EC50 [2]: ≥ 75 µM
- inhibition at 25 µM [3]: 39.6%
- CC50 ([4]; DNG CC50): 64.6 µM
- CC50 ([4]; EBOV CC50): 64.6 µM
- CC50 ([4]; RSV CC50): 64.6 µM
- CC50 ([4]; SINV CC50): 64.6 µM
- CC50 ([4]; WNV CC50): 64.6 µM
- CC50 ([4]; YFV CC50): 64.6 µM
- inhibition at 25 µM [5]: 14.9%
- EC50 [5]: 9.53 µM
- EC50 [6]: 44.8 µM
- inhibition at 25 µM [6]: 17.6%
- RSV TI [6]: 1.44
- EC50 [7]: 51.4 µM
- inhibition at 25 µM [8]: 84.1%
- EC50 [8]: 14.1 µM

SMILES: CCOC(=O)c1cnc2c(OC)cccc2c1NCC(C)O (centres unmarked) [Compound 69]
- EC50 [1]: 13.7 µM
- inhibition at 25 µM [1]: 44.6%
- WNV TI [1]: 2.53
- YFV TI [2]: 1.35
- inhibition at 25 µM [2]: 70.1%
- EC50 [2]: 25.7 µM
- inhibition at 25 µM [3]: 19.8%
- CC50 ([4]; DNG CC50): 34.6 µM
- CC50 ([4]; EBOV CC50): 34.6 µM
- CC50 ([4]; HCV CC50): ≥ 75 µM
- CC50 ([4]; RSV CC50): 34.6 µM
- CC50 ([4]; SINV CC50): 34.6 µM
- CC50 ([4]; WNV CC50): 34.6 µM
- CC50 ([4]; YFV CC50): 34.6 µM
- inhibition at 25 µM [5]: 60.9%
- EC50 [5]: 37.1 µM
- EC50 [6]: 2.21 µM
- inhibition at 25 µM [6]: 98.3%
- RSV TI [6]: 15.67
- EC50 [7]: 44 µM
- inhibition at 25 µM [8]: 64.4%
- EC50 [8]: 57.6 µM

SMILES: CCOC(=O)c1cnc2c(OC)cccc2c1NC(C)c1ccccc1 (centres unmarked) [Compound 71]
- EC50 [1]: 13.9 µM
- inhibition at 25 µM [1]: 24.7%
- WNV TI [1]: 3.55
- YFV TI [2]: 0.84
- inhibition at 25 µM [2]: 71.2%
- EC50 [2]: 58.5 µM
- EC50 [3]: 8.95 µM
- inhibition at 25 µM [3]: 80.1%
- HCV TI [3]: 4.42
- CC50 ([4]; DNG CC50): 49.3 µM
- CC50 ([4]; EBOV CC50): 49.3 µM
- CC50 ([4]; HCV CC50): 39.6 µM
- CC50 ([4]; RSV CC50): 49.3 µM
- CC50 ([4]; SINV CC50): 49.3 µM
- CC50 ([4]; WNV CC50): 49.3 µM
- CC50 ([4]; YFV CC50): 49.3 µM
- inhibition at 25 µM [5]: 49.1%
- EC50 [5]: 5.52 µM
- EC50 [6]: 4.47 µM
- inhibition at 25 µM [6]: 93.3%
- RSV TI [6]: 11.03
- EC50 [7]: 37.2 µM
- inhibition at 25 µM [8]: 90.1%
- EC50 [8]: 29.5 µM

SMILES: CCOC(=O)c1cnc2c(C(F)(F)F)cccc2c1Nc1ccc(S(=O)(=O)Nc2nc(C)cc(C)n2)cc1 [Compound 72]
- EC50 [1]: 13.3 µM
- inhibition at 25 µM [1]: 83.2%
- WNV TI [1]: 5.64
- YFV TI [2]: 3.59
- inhibition at 25 µM [2]: 90%
- EC50 [2]: 20.9 µM
- inhibition at 25 µM [3]: -24.8%
- CC50 ([4]; DNG CC50): ≥ 75 µM
- CC50 ([4]; EBOV CC50): ≥ 75 µM
- CC50 ([4]; HCV CC50): ≥ 75 µM
- CC50 ([4]; RSV CC50): ≥ 75 µM
- CC50 ([4]; SINV CC50): ≥ 75 µM
- CC50 ([4]; WNV CC50): ≥ 75 µM
- CC50 ([4]; YFV CC50): ≥ 75 µM
- inhibition at 25 µM [5]: -4.36%
- EC50 [5]: 37.1 µM
- EC50 [6]: 41.7 µM
- inhibition at 25 µM [6]: 50.3%
- RSV TI [6]: 1.8
- EC50 [7]: 12 µM
- inhibition at 25 µM [8]: 86%
- EC50 [8]: 17.3 µM

SMILES: COC(=O)c1ccc2nc(C)cc(Nc3cccc(O)c3)c2c1 [Compound 73]
- EC50 [1]: 25.8 µM
- inhibition at 25 µM [1]: 31.5%
- WNV TI [1]: 2.8
- YFV TI [2]: 1.79
- inhibition at 25 µM [2]: 51.8%
- EC50 [2]: 40.3 µM
- EC50 [3]: 2.32 µM
- inhibition at 25 µM [3]: 89.5%
- HCV TI [3]: 15.17
- CC50 ([4]; DNG CC50): 72.3 µM
- CC50 ([4]; EBOV CC50): 72.3 µM
- CC50 ([4]; HCV CC50): 35.2 µM
- CC50 ([4]; RSV CC50): 72.3 µM
- CC50 ([4]; SINV CC50): 72.3 µM
- CC50 ([4]; WNV CC50): 72.3 µM
- CC50 ([4]; YFV CC50): 72.3 µM
- inhibition at 25 µM [5]: 80.8%
- EC50 [5]: 5.99 µM
- EC50 [6]: 28.9 µM
- inhibition at 25 µM [6]: 63.1%
- RSV TI [6]: 2.5
- EC50 [7]: 16.8 µM
- inhibition at 25 µM [8]: 62.1%

SMILES: CCOC(=O)c1cnc2ccc(F)cc2c1Nc1ccc(S(=O)(=O)Nc2nc(C)cc(C)n2)cc1 [Compound 74]
- EC50 [1]: 9.72 µM
- inhibition at 25 µM [1]: 90.5%
- WNV TI [1]: 7.72
- YFV TI [2]: 7.75
- inhibition at 25 µM [2]: 93.5%
- EC50 [2]: 9.68 µM
- inhibition at 25 µM [3]: 39.4%
- CC50 ([4]; DNG CC50): ≥ 75 µM
- CC50 ([4]; EBOV CC50): ≥ 75 µM
- CC50 ([4]; RSV CC50): ≥ 75 µM
- CC50 ([4]; SINV CC50): ≥ 75 µM
- CC50 ([4]; WNV CC50): ≥ 75 µM
- CC50 ([4]; YFV CC50): ≥ 75 µM
- inhibition at 25 µM [5]: 19.4%
- EC50 [5]: ≥ 75 µM
- EC50 [6]: ≥ 75 µM
- inhibition at 25 µM [6]: 26.6%
- EC50 [7]: 4.08 µM
- inhibition at 25 µM [8]: 76.1%
